Data reported in patent publication US9302999B2, “Substituted triazoles as herbicides” (E. I. DU PONT DE NEMOURS AND COMPANY, priority 2012, dated 2016).
Read-outs that look alike come from different tables or passages of the source.

What was measured:
Format in all cases: in vivo
[1] = test system: foxtail, giant (giant foxtail, Setaria faberii); assay: Test A pre-/postemergence: foxtail, giant; conditions: for pest or weed control at 125 g/ha / pest or weed control at 500 g/ha: Setaria faberi, 240 h
Summary of the method: (§1)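 Soil medium was loam blended with sand; treatments pre- and postemergence were applied concurrently, postemergence at one- to two-leaf stage. Approximately ten days in greenhouse preceded visual comparison with untreated controls, scored 0 (no effect) to 100 (complete control).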

[2] = test system: morningglory (Ipomoea spp.); assay: Test A pre-/postemergence: morningglory
Summary of the method: as §1

corn (Zea mays) = assay: Test A pre-/postemergence: corn
Summary of the method: as §1

[3] = test system: sedge, umbrella (small-flower umbrella sedge Cyperus difformis); assay: Test B flooded paddy: sedge, umbrella; conditions: Flood, applied to paddy water at 2-leaf stage, visually evaluated after 13 to 15 days
Summary of the method: (§2)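 Visual ratings on a 0–100 scale, where 0 means no effect and 100 means complete control, were assigned by comparison with controls 13 to 15 days after treatment. Compounds went into paddy water over 2-leaf plants flooded to 3 cm.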

[4] = test system: ducksalad (Heteranthera limosa); assay: Test B flooded paddy: ducksalad; conditions: Flood, applied to paddy water at 2-leaf stage, visually evaluated after 13 to 15 days
Summary of the method: as §2

[5] = test system: ryegrass, Italian (Italian ryegrass, Lolium multiflorum); assay: Test C pre-/postemergence: ryegrass, Italian
Summary of the method: (§3)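 Preemergence on seeds in loam/sand, postemergence on 2–18 cm (1–4-leaf) plants in peat-based medium; compounds in non-phytotoxic solvent with surfactant. After 13–15 days in greenhouse, visual rating versus controls, 0 (no effect) to 100 (complete control).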

[6] = test system: johnsongrass (Sorghum halepense); assay: Test C pre-/postemergence: johnsongrass
Summary of the method: as §3

[7] = test system: ragweed (common ragweed, Ambrosia elation); assay: Test C pre-/postemergence: ragweed
Summary of the method: as §3

soybean (Glycine max) = assay: Test C pre-/postemergence: soybean
Summary of the method: as §3

kochia (Kochia scoparia) = assay: Test C pre-/postemergence: kochia
Summary of the method: as §3

[8] = test system: chickweed (common chickweed, Stellaria media); assay: Test C postemergence: chickweed
Summary of the method: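 Crop and weed plants were grown in peat-vermiculite medium and treated postemergence at the 1- to 4-leaf stage (2-18 cm tall). After 13-15 days in a greenhouse, each species was rated visually against untreated controls on a 0-100 scale (0 no effect, 100 complete control).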

[9] = Postemergence, 125 g ai/ha, 0 to 100 scale, 0 is no effect, 100 is complete control
[10] = Postemergence, 500 g ai/ha, 0 to 100 scale, 0 is no effect, 100 is complete control
[11] = Preemergence, 125 g ai/ha, 0 to 100 scale where 0 is no effect and 100 is complete control
[12] = Preemergence, 500 g ai/ha, 0 to 100 scale (0 no effect, 100 complete control)
[13] = Preemergence, 31 g ai/ha, scale of 0 to 100, 0 is no effect, 100 is complete control
[14] = Preemergence, 62 g ai/ha, scale of 0 to 100, 0 is no effect, 100 is complete control
[15] = Preemergence, 125 g ai/ha, scale 0 to 100, 0 no effect, 100 complete control
[16] = Preemergence, 250 g ai/ha, scale 0 to 100, 0 no effect, 100 complete control
[17] = Postemergence, 500 g ai/ha, visual rating on 0 to 100 scale (0 no effect, 100 complete control), approximately ten days
[18] = Postemergence, 31 g ai/ha, scale 0 to 100 (0 no effect, 100 complete control)
[19] = Postemergence, 62 g ai/ha, scale 0 to 100 (0 no effect, 100 complete control)
[20] = Postemergence, 125 g ai/ha, scale 0 to 100, 0 no effect, 100 complete control
[21] = Postemergence, 250 g ai/ha, scale 0 to 100

Compound: Cc1nn(-c2ccc(F)cc2F)nc1Cc1ccnc(C(F)(F)F)c1 [Compound 54, 4-[[2-(2,4-difluorophenyl)-5-methyl-2H-1,2,3-triazol-4-yl]methyl]-2-(trifluoromethyl)pyridine]
- pest or weed control at 125 g/ha ([1]; post-emergence, Postemergence, 125 g ai/ha, 0 to 100 scale, 0 is no effect, 100 is complete control, read-out: Foxtail, Giant plant response rating): 80%
- pest or weed control at 500 g/ha ([1]; post-emergence, Postemergence, 500 g ai/ha, visual rating on 0 to 100 scale (0 no effect, 100 complete control), approximately ten days, read-out: Foxtail, Giant plant response rating): 90%
- pest or weed control at 125 g/ha ([1]; pre-emergence, Preemergence, 125 g ai/ha, 0 to 100 scale (0 no effect, 100 complete control), read-out: Plant response rating, Foxtail, Giant): 100%
- pest or weed control at 500 g/ha ([1]; pre-emergence, Preemergence, 500 g ai/ha, 0 to 100 scale, 0 is no effect, 100 is complete control, read-out: Plant response rating, Foxtail, Giant): 100%
- pest or weed control at 125 g/ha ([2]; Ipomoea, pre-emergence, 240 h, Preemergence, 125 g ai/ha, 0 to 100 scale (0 no effect, 100 complete control), read-out: Plant response rating, Morningglory): 60%
- pest or weed control at 500 g/ha ([2]; Ipomoea, pre-emergence, 240 h, Preemergence, 500 g ai/ha, 0 to 100 scale, 0 is no effect, 100 is complete control, read-out: Plant response rating, Morningglory): 90%
- plant injury at 125 g/ha (corn (Zea mays); Zea mays, post-emergence, 240 h, Postemergence, 125 g ai/ha, 0 to 100 scale, 0 is no effect, 100 is complete control, read-out: Corn plant response rating): 30%
- plant injury at 500 g/ha (corn (Zea mays); Zea mays, post-emergence, 240 h, Postemergence, 500 g ai/ha, visual rating on 0 to 100 scale (0 no effect, 100 complete control), approximately ten days, read-out: Corn plant response rating): 60%
- Corn plant response rating (crop injury, 0 = no effect, 100 = complete kill) at 125 g/ha (corn (Zea mays); Zea mays, pre-emergence, 240 h, Preemergence, 125 g ai/ha, 0 to 100 scale (0 no effect, 100 complete control)): 10%
- Corn plant response rating (crop injury, 0 = no effect, 100 = complete kill) at 500 g/ha (corn (Zea mays); Zea mays, pre-emergence, 240 h, Preemergence, 500 g ai/ha, 0 to 100 scale, 0 is no effect, 100 is complete control): 40%
- Plant response rating, Sedge, Umbrella (0 to 100 scale, 0 is no effect, 100 is complete control) ([3]; 250 g ai/ha): 85
- Plant response rating, Ducksalad (0 to 100 scale, 0 is no effect, 100 is complete control) ([4]; 250 g ai/ha): 85

Compound: CCOCc1nn(-c2ccc(F)cc2)nc1Oc1ccnc(C(F)(F)F)c1 [Compound 163]
- Plant response rating, Foxtail, Giant [1, 9]: 60
- Foxtail, Giant plant response rating [1, 10]: 90
- Plant response rating, Foxtail, Giant [1, 11]: 100
- Plant response rating, Foxtail, Giant [1, 12]: 100
- Plant response rating, Morningglory [2, 9]: 30
- Morningglory plant response rating [2, 10]: 80
- Plant response rating, Morningglory [2, 11]: 10
- Plant response rating, Morningglory [2, 12]: 30
- Plant response rating, Corn (corn (Zea mays); [9]): 20
- Corn plant response rating (corn (Zea mays); [10]): 30
- Plant response rating, Corn (corn (Zea mays); [11]): 0
- Plant response rating, Corn (corn (Zea mays); [12]): 10
- Plant response rating, Sedge, Umbrella (0 to 100 scale, 0 is no effect, 100 is complete control) ([3]; 125 g ai/ha): 80
- Plant response rating, Ducksalad (0 to 100 scale, 0 is no effect, 100 is complete control) ([4]; 125 g ai/ha): 70
- Plant response rating, Ryegrass, Italian [5, 13]: 10
- Plant response rating, Ryegrass, Italian [5, 14]: 45
- Plant response rating, Ryegrass, Italian [5, 15]: 65
- Plant response rating, Ryegrass, Italian [5, 16]: 85
- Plant response rating, Johnsongrass [6, 13]: 30
- Plant response rating, Johnsongrass [6, 14]: 35
- Plant response rating, Johnsongrass [6, 15]: 60
- Plant response rating, Johnsongrass [6, 16]: 60
- Plant response rating, Ragweed [7, 13]: 0
- Plant response rating, Ragweed [7, 14]: 10
- Plant response rating, Ragweed [7, 15]: 20
- Plant response rating, Ragweed [7, 16]: 35
- Plant response rating, Soybean (soybean (Glycine max); [13]): 5
- Plant response rating, Soybean (soybean (Glycine max); [14]): 5
- Plant response rating, Soybean (soybean (Glycine max); [15]): 10
- Plant response rating, Soybean (soybean (Glycine max); [16]): 20

Compound: Cc1nn(-c2ccc(C(F)(F)F)cc2)nc1Oc1ccnc(C(F)(F)F)c1 [Compound 120]
- Foxtail, Giant plant response rating [1, 9]: 80
- Foxtail, Giant plant response rating [1, 17]: 80
- Plant response rating, Foxtail, Giant [1, 11]: 100
- Plant response rating, Foxtail, Giant [1, 12]: 100
- Morningglory plant response rating [2, 9]: 90
- Morningglory plant response rating [2, 17]: 100
- Plant response rating, Morningglory [2, 11]: 10
- Plant response rating, Morningglory [2, 12]: 30
- Corn plant response rating (corn (Zea mays); [9]): 20
- Corn plant response rating (corn (Zea mays); [17]): 50
- Plant response rating, Corn (corn (Zea mays); [11]): 20
- Plant response rating, Corn (corn (Zea mays); [12]): 30
- Plant response rating, Ryegrass, Italian [5, 18]: 5
- Plant response rating, Ryegrass, Italian [5, 19]: 5
- Plant response rating, Ryegrass, Italian [5, 20]: 5
- Plant response rating, Ryegrass, Italian [5, 21]: 30
- Plant response rating, Ryegrass, Italian [5, 13]: 40
- Plant response rating, Ryegrass, Italian [5, 14]: 90
- Plant response rating, Ryegrass, Italian [5, 15]: 90
- Plant response rating, Ryegrass, Italian [5, 16]: 95
- Plant response rating, Johnsongrass [6, 18]: 0
- Plant response rating, Johnsongrass [6, 19]: 5
- Plant response rating, Johnsongrass [6, 20]: 25
- Plant response rating, Johnsongrass [6, 21]: 45
- Plant response rating, Johnsongrass [6, 13]: 25
- Plant response rating, Johnsongrass [6, 14]: 80
- Plant response rating, Johnsongrass [6, 15]: 95
- Plant response rating, Johnsongrass [6, 16]: 98
- Plant response rating, Kochia (kochia (Kochia scoparia); [18]): 65
- Plant response rating, Kochia (kochia (Kochia scoparia); [19]): 95
- Plant response rating, Kochia (kochia (Kochia scoparia); [20]): 98
- Plant response rating, Kochia (kochia (Kochia scoparia); [21]): 98
- Plant response rating, Kochia (kochia (Kochia scoparia); [13]): 10
- Plant response rating, Kochia (kochia (Kochia scoparia); [14]): 90
- Plant response rating, Kochia (kochia (Kochia scoparia); [15]): 100
- Plant response rating, Kochia (kochia (Kochia scoparia); [16]): 100
- Plant response rating, Ragweed [7, 18]: 60
- Plant response rating, Ragweed [7, 19]: 60
- Plant response rating, Ragweed [7, 20]: 80
- Plant response rating, Ragweed [7, 21]: 85
- Plant response rating, Ragweed [7, 13]: 0
- Plant response rating, Ragweed [7, 14]: 45
- Plant response rating, Ragweed [7, 15]: 45
- Plant response rating, Ragweed [7, 16]: 65
- Plant response rating, Soybean (soybean (Glycine max); [18]): 25
- Plant response rating, Soybean (soybean (Glycine max); [19]): 25
- Plant response rating, Soybean (soybean (Glycine max); [20]): 55
- Plant response rating, Soybean (soybean (Glycine max); [21]): 100
- Plant response rating, Soybean (soybean (Glycine max); [13]): 0
- Plant response rating, Soybean (soybean (Glycine max); [14]): 5
- Plant response rating, Soybean (soybean (Glycine max); [15]): 10
- Plant response rating, Soybean (soybean (Glycine max); [16]): 20
- Plant response rating, Chickweed ([8]; 31 g ai/ha, scale 0 to 100 (0 no effect, 100 complete control)): 75
- Plant response rating, Chickweed ([8]; 62 g ai/ha, scale 0 to 100 (0 no effect, 100 complete control)): 100
- Plant response rating, Chickweed ([8]; 125 g ai/ha, scale 0 to 100, 0 no effect, 100 complete control): 100
- Plant response rating, Chickweed ([8]; 250 g ai/ha, scale 0 to 100): 100
